Test results from US9511055B2, “Angiotensin in treating brain conditions” (TARIX PHARMACEUTICALS LTD., priority 2012, dated 2016).

Tests used:
Assay type in all cases: in vivo
[1] = test system: MCAO rat model of ischemic stroke; assay: Stepping test (forelimb akinesia) after tMCAO; settings: for stepping test performance vs vehicle control: all experimental conditions (s.c. daily injection or Alzet pump, 28 days), by Day 21 post-surgery; for stepping test performance vs control: day 15
Experimental: (§1) For the purposes of this example, Transient middle cerebral artery occlusion (tMCAO) procedure Day is defined as “Day 1” in this study. On the day of surgery anesthesia were induced with 4% isoflurane in a mixture of 70% N2O and 30% O2 and maintained with 1.5-2% isoflurane.
(§2) The tMCAO procedures were performed according to the method described R. Schmid-Elsaesser et al. Briefly, the right CCA (Common Carotid Artery) was exposed through a midline neck incision and carefully dissected free from surrounding nerves and fascia—from its bifurcation to the base of the skull. The occipital artery branches of the ECA (External Carotid Artery) were then isolated, and these branches were dissected and coagulated. The ECA was dissected further distally and coagulated along with the terminal lingual and maxillary artery branches, which was then divided. The ICA (Internal Carotid Artery) was isolated and carefully separated from the adjacent vagus nerve, and the pterygopalatine artery was ligated close to its origin with a 5-0 nylon suture (SMI, Belgium). Next, a 4-0 silk suture was tied loosely around the mobilized ECA stump, and a 4 cm length of 4-0 monofilament nylon suture (the tip of the suture was blunted by using a flame, and the suture was coated with polylysine, prior to insertion) was inserted through the proximal ECA into the ICA and thence into the circle of Willis, effectively occluding the MCA. The surgical wound was closed and the animals were returned to their cages to recover from anesthesia. One hour and a half after occlusion rats were re-anesthetized, the monofilament was withdrawn to allow reperfusion, the surgical wound was closed and rats were returned to their cages.
(§3) Animals were subjected to a modified Modified Neurological Rating Scale (mNRS) at 24 hours post reperfusion. Only animals with an overall score of ≧10 are included in this study. Animals were allocated into the test groups, according to the mNRS results on day 2, in order to have similar distribution of rats performance between groups. Started on day 2, 24 hours post-surgery, each animal is implanted subcutaneously with osmotic Alzet pump and is treated by continuous PanCyte administration (2.5 mg/ml or 25 mg/ml in PBS; SEQ ID NO:22).
Animals were tested for forelimb akinesia in a stepping test. The animal was held with its hind limbs fixed with one hand and the forelimb not monitored with the other, while the unrestrained fore-paw touches a table. The number of adjusting steps were counted while the animal was moved sideways along the table surface (85 cm in approximately five seconds), in the forehand & backhand direction for both forelimbs. […] Four groups were analyzed in this test, a control group (receiving only PBS for 49 days), a group receiving 50 μg/kg PanCyte for 49 days, a group receiving 500 μg/kg PanCyte for 49 days, and a group receiving 50 μg/kg PanCyte for 14 days.
(§4) Animals were subjected to a modified Modified Neurological Rating Scale (mNRS) at 24 hours post reperfusion. Only animals with an overall score of ≧10 were included in this study. Animals were allocated into the test groups, according to the mNRS results on day 2, in order to have similar distribution of rats performance between groups. Starting on day 2, 24 hours post-surgery, animals in groups 4, 5 and 7 were implanted subcutaneously with an osmotic Alzet pump and treated with either 500 μg/kg TXA127 (SEQ ID NO:1), 500 μg/kg PanCyte (SEQ ID NO:22), or 50 μg/kg Linear PanCyte (SEQ ID NO:6). Animals in groups 2, 3 and 6 received 500 μg/kg or 1,000 μg/kg TXA127 or 500 μg/kg PanCyte, administered subcutaneously via daily injection. Animals in group 1 were treated with a daily subcutaneous injection of a PBS (vehicle).
Animals were tested for forelimb akinesia in a stepping test (ST). The animal was held with its hind limbs fixed with one hand and the forelimb not to be monitored with the other, while the unrestrained fore-paw touches the table. […]

[2] = test system: MCAO rat model of ischemic stroke; assay: Forelimb placement test after tMCAO; settings: for forelimb placing test performance vs control: Example 1, continuous s.c. Alzet pump
Experimental: as §1, §2, §3
The limb placing tests were divided into both forelimb and hindlimb tests. For the forelimb-placing test, the examiner held the rat close to a tabletop and scored the rat's ability to place the forelimb on the tabletop in response to whisker, visual, tactile, or proprioceptive stimulation. Similarly, for the hindlimb placing test, the examiner assessed the rat's ability to place the hindlimb on the tabletop in response to tactile and proprioceptive stimulation. […]

[3] = test system: MCAO rat model of ischemic stroke; assay: Body swing test after tMCAO; settings: for body swing test performance vs vehicle control / body swing test performance level: Example 2, 28 days; for body swing test performance level: Day 49; for body swing test performance vs control: continuous s.c. Alzet pump
Experimental: as §1, §2, §3
The rat was held approximately one inch from the base of its tail. It was then elevated to an inch above a surface of a table. The rat was held in the vertical axis, defined as no more than 10° to either the left or the right side. A swing was recorded whenever the rat moved its head out of the vertical axis to either side. Before attempting another swing, the rat had to return to the vertical position for the next swing to be counted. Twenty (20) total swings were counted. A normal rat typically has an equal number of swings to either side. Following focal ischemia, rats tend to swing to the contralateral side (left side in this example). Body swing scores are expressed as a percentage of rightward over total swings. […] Four groups were analyzed in this test, a control group (receiving only PBS for 49 days), a group receiving 50 μg/kg PanCyte for 49 days, a group receiving 500 μg/kg PanCyte for 49 days, and a group receiving 50 μg/kg PanCyte for 14 days.
as §4, with “Animals in group 1 were treated with a daily subcutaneous injection of a PBS (vehicle).” left out

[4] = test system: MCAO rat model of ischemic stroke; assay: Overall post-stroke performance in tMCAO rats, Example 2 comparison; settings: 50 μg/kg Linear PanCyte as compared to 500 μg/kg of PanCyte
Experimental: The animal model, surgical procedures, and animal care procedures and conditions were as described above for Example 1 unless otherwise specified.
as §4
In addition to the performance benefits discussed above, blood flow and blood vessel diameter was measured using Laser Doppler, according to known protocols, in each non-Alzet group on Day 50.

[5] = test system: MCAO rat model of ischemic stroke; assay: Modified Neurological Rating Scale (mNRS) evaluation after tMCAO; settings: Example 1, continuous s.c. Alzet pump
Experimental: as §1
as §2, with “cages. […]” for “cages.”
The Modified Neurological Rating Scale (mNRS) was administered by an individual who was unaware of the drug/dose given (blind test). […] Four groups were analyzed in this test, a control group (receiving only PBS for 49 days), a group receiving 50 μg/kg PanCyte for 49 days, a group receiving 500 μg/kg PanCyte for 49 days, and a group receiving 50 μg/kg PanCyte for 14 days. […]

## Asp^1-Arg^2-Val^3-Ser^4-Ile^5-His^6-Cys^7 (SEQ ID NO:6) (DRVSIHC) [Linear PanCyte, non-cyclized form of PanCyte]
[1]; Example 2, 50 ug/kg, s.c. Alzet pump, 28 days, vs 500 μg/kg TXA127 or PanCyte
  stepping test results compared with ten times as much TXA127 or PanCyte: substantially equivalent
[1]; Example 2
  stepping test performance vs vehicle control: significantly improved the performance of treated rats
[2]; Example 2, 50 μg/kg, s.c. Alzet pump, 28 days, particularly from Day 35 onward
  forelimb placing test performance compared with the other experimental groups: best performance
[3]; 50 μg/kg s.c. Alzet pump, Day 21
  body swing test performance vs vehicle control: showed improvement by Day 21
[3]; 50 μg/kg s.c. Alzet pump, Day 28
  body swing test performance vs vehicle control: significant improvement in performance by Day 28
[3]; 50 μg/kg s.c. Alzet pump
  body swing test performance level: near-normal (uninjured) level
[4]
  effectiveness compared with PanCyte: almost equally effective

## Asp^1-Arg^2-Val^3-Tyr^4-Ile^5-His^6-Pro^7 (SEQ ID NO: 1) (DRVYIHP) [TXA127]
[1]; Example 2
  stepping test performance vs vehicle control: significantly improved the performance of treated rats
[3]; 500 μg/kg daily s.c. injection, before Day 35
  body swing test performance vs vehicle control: did not show significant results until Day 35
[3]; 500 μg/kg s.c. Alzet pump, Day 21
  body swing test performance vs vehicle control: showed improvement by Day 21
[3]; 500 μg/kg s.c. Alzet pump, Day 28
  body swing test performance vs vehicle control: significant improvement in performance by Day 28
[3]; 1,000 μg/kg daily s.c. injection, Day 21
  body swing test performance vs vehicle control: showed improvement by Day 21
[3]; 1,000 μg/kg daily s.c. injection, Day 28
  body swing test performance vs vehicle control: significant improvement in performance by Day 28
[3]; TXA 1,000 g/kg group, daily s.c. injection
  body swing test performance level: near-normal (uninjured) level
[3]; TXA Alzet group, 500 μg/kg s.c. Alzet pump
  body swing test performance level: near-normal (uninjured) level

## CCC(C)C1NC(=O)C(NC(=O)C(NC(=O)C(CCCNC(=N)N)NC(=O)C(N)CC(=O)O)C(C)C)CSCC(C(=O)O)NC(=O)C(Cc2c[nH]cn2)NC1=O (centres unmarked) [PanCyte, Asp^1-Arg^2-Val^3-Ser^4-Ile^5-His^6-Cys^7 (SEQ ID NO: 22)]
[1]; Example 1, 50 μg/kg for 14 days, continuous s.c. Alzet pump, trending toward improvement
  stepping test performance vs control: did not reach statistically significant levels
[1]; Example 1, 50 μg/kg for 49 days, continuous s.c. Alzet pump
  stepping test performance vs control: performed significantly better than controls
[1]; Example 1, 500 μg/kg for 49 days, continuous s.c. Alzet pump, trending toward improvement
  stepping test performance vs control: did not reach statistically significant levels
[1]; Example 1, each PanCyte group (50 μg/kg 49 days, 500 μg/kg 49 days, 50 μg/kg 14 days), continuous s.c. Alzet pump, day 22, continued through day 36
  stepping test performance (number of adjusting steps) vs control: increased performance of rats by day 22
[1]; Example 2
  stepping test performance vs vehicle control: significantly improved the performance of treated rats
[2]; 50 μg/kg for 14 days, from day 15
  forelimb placing test performance vs control: performed significantly better than control animals beginning on day 15
[2]; each PanCyte group (50 μg/kg 49 days, 500 μg/kg 49 days, 50 μg/kg 14 days), day 29, continued to day 36
  forelimb placing test performance vs control: increased performance on this test by day 29
[2]; other treatment groups (50 μg/kg 49 days, 500 μg/kg 49 days), trending before day 29
  forelimb placing test performance vs control: did not reach statistical significance until day 29
[3]; Example 1, 50 μg/kg for 14 days, from day 29
  body swing test performance vs control: showed statistical significance beginning on day 29
[3]; Example 1, all treatment groups, from day 8
  body swing test scores vs control: trend toward improved scores beginning on day 8
[3]; Example 1, each PanCyte group (50 μg/kg 49 days, 500 μg/kg 49 days, 50 μg/kg 14 days), day 36
  body swing test performance vs control: improved performance on the test by day 36
[3]; 500 μg/kg daily s.c. injection, Day 28
  body swing test performance vs vehicle control: significant improvement in performance by Day 28
[3]; PanCyte Alzet group, 500 μg/kg s.c. Alzet pump, Day 21
  body swing test performance vs vehicle control: showed improvement by Day 21
[3]; PanCyte Alzet group, 500 μg/kg s.c. Alzet pump, Day 28
  body swing test performance vs vehicle control: significant improvement in performance by Day 28
[5]; 50 μg/kg for 49 days, days 8 and 15
  mNRS performance vs control: statistically improved performance on days 8 and 15
[5]; 500 μg/kg for 49 days, day 22
  mNRS performance vs control: statistically improved performance on day 22
[5]; each PanCyte group (50 μg/kg 49 days, 500 μg/kg 49 days, 50 μg/kg 14 days), day 29 and 36
  mNRS performance vs control: improved performance on the test by day 29
